These results are taken from US20220282271A1, “HERBICIDE RESISTANT PLANTS AND METHODS OF MAKING AND USING” (OFFICE OF INNOVATION ADVANCEMENT AND COMMERCIALIZATION, priority 2019, published 2022).

Molecules are shown by their SMILES.

Common to all, as to assay type: in vivo
Holding throughout (conditions): 1.0 lb ai/a, applied approximately 3 weeks after emergence, relative to non-treated

The subject of one assay is Albizia julibrissin. The assay is described as follows: Weed control screen: silktree. On the procedure:
(§1) Herbicides were applied at a spray volume of 280 L/ha with no adjuvant added to any herbicide mixture. Weed control was rated on a 0 to 100 percent phytoxicity scale with 0 being no plant injury/phytotoxicity and 100 being complete plant dessication. Twenty-one weeds were evaluated for response to herbicides (Table 3). The weeds selected were a mixture of weeds common in agronomic and horticultural crops. Herbicide was applied to all species approximately 3 weeks after emergence. Plant phytotoxicity rated as percent control relative to the non-treated.

For the next assay, the system named is Senna obtusifolia. The experiment in a line: Weed control screen: sicklepod. On the procedure: as §1
For a further assay, the system named is Crotalaria spectabilis. The assay is described as follows: Weed control screen: showy crotalaria. On the procedure: as §1
The next assay deals with Sesbania exaltata. The experiment in a line: Weed control screen: hemp sesbania. On the procedure: as §1
Another assay has as its system Physalis angulata. The experiment in a line: Weed control screen: cutleaf groundcherry. On the procedure: as §1
The subject of the next assay is Murdannia nudiflora. The assay is described as follows: Weed control screen: doveweed. On the procedure: as §1
A further assay has as its system Ipomoea lacunosa. The experiment in a line: Weed control screen: pitted morningglory. On the procedure: as §1
A further assay has as its system Sida spinosa. The experiment in a line: Weed control screen: prickly sida. On the procedure: as §1
In another assay the test system is Cyperus iria. The experiment in a line: Weed control screen: rice flatsedge. On the procedure:
as §1

For another assay, the system named is Ipomoea coccinea. The assay is described as follows: Weed control screen: red morningglory. On the procedure:
as §1

A further assay deals with Ipomoea quamoclit. The assay is described as follows: Weed control screen: cypressvine morningglory. On the procedure:
as §1

For another assay, the system named is Ipomoea hederacea. The assay is described as follows: Weed control screen: entireleaf morningglory. On the procedure:
as §1

For the next assay, the system named is Jaquemontia tamnifolia. The assay is described as follows: Weed control screen: smallflower morningglory. On the procedure:
as §1

The next assay deals with Conyza candensis. The assay is described as follows: Weed control screen: glyphosate-resistant horseweed. On the procedure:
as §1

In a further assay the test system is Solanum carolinense. The assay is described as follows: Weed control screen: Carolina horsenettle. On the procedure:
as §1

The test system of another assay is Kyllinga squamulata. The assay is described as follows: Weed control screen: cock's comb kyllinga. On the procedure: as §1
Another assay deals with Sorghum halapense. The experiment in a line: Weed control screen: johnsongrass. On the procedure:
as §1

For the next assay, the system named is Eleusine indica. The assay is described as follows: Weed control screen: goosegrass. On the procedure:
as §1

In a further assay the test system is Abutilon theophrasti. The experiment in a line: Weed control screen: velvetleaf. On the procedure:
as §1

Another assay concerns Amaranthus hybridus. The experiment in a line: Weed control screen: smooth pigweed. On the procedure:
as §1

The test system of a further assay is Amaranthus palmeri. The assay is described as follows: Weed control screen: glyphosate resistant palmer amaranth. On the procedure:
as §1

For the compound `CP(=O)(O)CCC(N)C(=O)O` (stereo not shown) [Glufosinate, glufosinate], the “Percent control (0 to 100)” value with Albizia julibrissin, in the assay with Senna obtusifolia, in the assay on Crotalaria spectabilis, in the assay on Sesbania exaltata, with Physalis angulata and in the assay with Murdannia nudiflora was 100% in each case. Further, the “Percent control (0 to 100)” value is 100% with Ipomoea lacunosa; 100% in the assay on Sida spinosa; 60% with Cyperus iria; 100% in the assay on Ipomoea coccinea; 100% with Ipomoea quamoclit; 100% with Ipomoea hederacea. The “Percent control (0 to 100)” value with Jaquemontia tamnifolia is 100%; with Conyza candensis, 100%; with Solanum carolinense it was 100%; with Kyllinga squamulata it was 30%; in the assay with Sorghum halapense, 100%; in the assay on Eleusine indica, 100%. Also, the “Percent control (0 to 100)” value with Abutilon theophrasti, with Amaranthus hybridus and in the assay on Amaranthus palmeri was 100% throughout.
Take `O=C(O)CNCP(=O)(O)O` [Glyphosate, glyphosate]: the “Percent control (0 to 100)” value in the assay on Albizia julibrissin is reported as 25%; with Senna obtusifolia, 70%; in the assay on Crotalaria spectabilis, 60%; in the assay with Sesbania exaltata it was 75%; in the assay with Physalis angulata it was 99%; in the assay on Murdannia nudiflora, 80%. In addition, the “Percent control (0 to 100)” value stood at 60% in the assay with Ipomoea lacunosa; 60% with Sida spinosa; 50% with Ipomoea coccinea; 60% in the assay with Ipomoea hederacea; 40% in the assay with Jaquemontia tamnifolia; 0% in the assay on Conyza candensis. Moreover, the “Percent control (0 to 100)” value in the assay with Solanum carolinense turned out to be 50%; with Kyllinga squamulata, 95%; with Sorghum halapense, 100%; with Eleusine indica, 90%; in the assay on Abutilon theophrasti, 100%; with Amaranthus hybridus, 90%. Besides, in the assay on Amaranthus palmeri, the “Percent control (0 to 100)” value is on record as 35%.
